Laboratory results as given in patent publication US7153886B2, “Method for treatment of peripheral inflammation of a loop ileal artificial anus” (Tanabe Seiyaku Co., Ltd., priority 1999, dated 2006).
“Also recorded” adds a separate entry of the source. Structures can show the parent of a compound that is named as a salt.

How the values were obtained:
[1] = system: left-sided colon ulcerative colitis; experiment: Clinical effects in ulcerative colitis (Experiments 5-7); format: in vivo, human patient
Protocol: The patient was a person, whose illness was diagnosed as left-sided colon ulcerative colitis. The patient was medicated with mesalazine and a steroid, and treated with leukocytapheresis, but the rectal lesion was remained, and the symptoms were not improved any further. The inflammation was scored as Matts Grade 3 (Quarterly Journal of Medicine, New Series, No. 120, October 1961), and it was so frail that it bled when the endoscopic examination was carried out.
Ecabet sodium was administered to the patient mentioned above. That is, Ecabet sodium-containing granules (1.5 g) were pulverized in a mortar, suspended in a physiological saline (20 ml), and the resultant was rectally administered through the anus twice a day. After the administration, the inflammation was remitted to Matts Grade 2, and the inflammation area was decreased.
The patient was a person, whose illness was diagnosed as left-sided colon ulcerative colitis. The patient was medicated with mesalazine, predonine and a steroid, by which the inflammation was controlled to a degree of disseminated ulcer at the rectum, but further improvement was not obtained.
Ecabet sodium was administered to the patient mentioned above. That is, Ecabet sodium-containing granules (1.5 g) were pulverized in a mortar, suspended in a physiological saline (20 ml), and the resultant was rectally administered through the anus twice a day. After the administration, the ulcer was improved into a red scar.
The patient was a person, whose illness was diagnosed as left-sided colon ulcerative colitis. The patient was medicated with salazosulfapyridine and predonine, and treated with leukocytapheresis, but the inflammation condition at the rectum could not be controlled, and the bleeding and the melena lasted.
Ecabet sodium was administered to the patient mentioned above. That is, Ecabet sodium-containing granules (1.5 g) were pulverized in a mortar, suspended in a physiological saline (20 ml), and the resultant was rectally administered through the anus twice a day.

[2] = system: intestinal mucosal injury induced by intra-intestinal infusion of acetic acid; experiment: Prophylactic or therapeutic effect on acetic acid-induced intestinal injury; format: in vivo; details: Fischer rats
From the text: Sulfodehydroabietic acid monosodium salt […] (hereinafter referred to as Ecabet sodium) of the active ingredient of the present invention was previously administered to Fischer rats, and the prophylactic or therapeutic effect thereof on intestinal mucosal injury induced by intra-intestinal infusion of acetic acid was studied. Namely, granules containing Ecabet sodium (0.5 g, trade name: Gastrome granule, containing 1.0 g of Ecabet sodium per 1.5 g, hereinafter simply referred to as Ecabet sodium-containing granules) were suspended in a physiological saline, and the mixture was injected intra-rectally to Fischer rats. One hour thereafter, a 25% acetic acid solution was intra-rectally injected to the rats. Two hours after the administration of acetic acid, the intestine was excised from the rats, and the histopathological changes in the surface of the intestinal inner wall was observed visually and with a microscope, and the injury of the intestinal mucosa was evaluated both macroscopically and histologically. In the control group, the same procedures were repeated except for that a physiological saline was administered instead of a suspension of Ecabet sodium-containing granules in a physiological saline. […] In addition, the degree of the intestine mucosal injury between the physiological saline-treated group and the Ecabet sodium-treated group was scored and compared according to the criteria as mentioned below, which was based on the method for Classification and Evaluation of Macpherson, B. R. et al., Digestion, 17, p. 135–150 (1978). The data is indicated in Table 1. • (1) Scoring criteria of degree of macroscopic injury: [table] • (2) Scoring criteria of degree of histological injury: [table]

[3] = system: large and small intestine Crohn's disease; experiment: Clinical effects in a patient of Crohn's disease; format: in vivo, human patient; details: person; one year after the start of the administration
Protocol: The patient was a person, whose illness was diagnosed from the pathological data as large and small intestine Crohn's disease. The exacerbation and the remission were mutually repeated, and the patient was treated with a conventional medicine, but the exacerbation of the anal lesion and the bleeding at the intestine could not be controlled. Although a surgical excision of the lesion was considered, the area of the lesion was so large that it could not be excised, and therefore, a loop ileal artificial anus was installed for administration of Ecabet sodium. Ecabet sodium was administered to the patient mentioned above. That is, Ecabet sodium-containing granules (1.5 g) were pulverized in a mortar, suspended in water, and the resultant was directly administered into the intestine through the artificial anus once a day.

[4] = system: ileum pouchitis accompanying with acute hemorrhagic ulcer; experiment: Clinical effects in ileum pouchitis; format: in vivo, human patient; details: Experiment 11, person; granules 1.5 g in water through the anus twice a day for about 4 months
Protocol: The patient was a person. During the postoperative treatment, ileum pouchitis accompanying with acute hemorrhagic ulcer appeared at the ileum pouch which was subjected to ileal pouch/anal anastomosis by the operation for ulcerative colitis. Ecabet sodium was administered to the patient mentioned above. That is, Ecabet sodium-containing granules (1.5 g) were suspended in water, and the resultant was injected through the anus twice a day for about 4 months.

[5] = system: acute hemorrhagic rectal ulcer; experiment: Clinical effects in acute hemorrhagic rectal ulcer (Experiments 8-10); format: in vivo, human patient
Protocol: The patient was a person, who was hospitalized for treatment of HCV-associated hepatocirrhosis, hepatocellular carcinoma and esophageal varices. After the endoscopic ossification treatment for the esophageal varices was done, an acute hemorrhagic rectal ulcer appeared at whole of the lower rectum. The patient was treated with total parenteral nutrition for 52 days, but the conditions were not improved. Ecabet sodium was administered to the patient mentioned above. That is, Ecabet sodium-containing granules (1.5 g) were suspended in water, and the resultant was injected through the anus twice a day for about 1.5 month. […] The patient was a person, who was hospitalized for treatment of the right thighbone break. During the treatment thereof, an acute hemorrhagic rectal ulcer occurred at whole of the lower rectum. The patient was treated with total parenteral nutrition, but the conditions were not improved. Ecabet sodium was administered to the patient mentioned above. That is, Ecabet sodium-containing granules (1.5 g) were suspended in water, and the resultant was injected through the anus twice a day for about 2.5 months. […] The patient was a person, who was hospitalized for treatment of pancreatic cancer. During the treatment, an acute hemorrhagic rectal ulcer appeared at whole of the lower rectum. Ecabet sodium was administered to the patient mentioned above. That is, Ecabet sodium-containing granules (1.5 g) were suspended in water, and the resultant was injected through the anus twice a day for about 1 month.

[6] = system: intestinal Behçet's disease; experiment: Clinical effects in a patient of Behçet's disease; format: in vivo, human patient; details: person
From the text: The patient was a person, whose illness had been diagnosed as intestinal Behçet's disease accompanying with the multiple ulcerative lesion at the small intestine, and who had been medically treated (i.e., administration of a steroid, etc.). Then, the patient was operated surgically twice to excise the intestine on account of massive melena and regional peritonitis but the lesion of the remaining intestine was exacerbated, and further ileus, melena, and peritonitis symptoms caused by anastomotic recrudescence appeared. In order to excise the injured intestine, the abdomen of the patient was incised, but the injured area was so large that the intestine could not be excised, so that a loop ileal artificial anus was installed for administration of Ecabet sodium.
Ecabet sodium was administered to the patient mentioned above. That is, Ecabet sodium-containing granules (1.5 g) were orally administered twice a day. Further, said granules (1.5 g) were pulverized in a mortar, suspended in water, and the resultant was directly administered into the intestine through the artificial anus twice a day. After the administration of Ecabet sodium, the pain and the melena disappeared in a several days.

[7] = system: TNBS-induced enteritis; mucosal injury of the intestine induced by acetic acid; experiment: Effect on TNBS-induced enteritis (followed by acetic acid); format: in vivo, Fischer rats
Protocol: Ecabet sodium of the active ingredient of the present invention was administered to Fischer rats to which TNBS was previously intra-intestinally injected to induce chronic enteritis, and further acetic acid was administered to the rats. Prophylactic or therapeutic effect of Ecabet sodium on the mucosal injury of the intestine induced by acetic acid was studied.
Namely, a solution of TNBS (2,4,6-trinitrobenzenesulfonic acid) in 50% ethanol was injected intra-intestinally to Fischer rats at a dose of 50 mg per 1 kg of the body weight to give the TNBS-induced enteritis. Three weeks thereafter, Ecabet sodium-containing granules (0.5 g) was suspended in a physiological saline, and the mixture was administered intra-rectally to the rats. Thirty minutes thereafter, a 25% acetic acid solution was intra-rectally injected to the rats, and two hours after the acetic acid administration, the intestine was excised from the rats, and the intestinal mucosal injury thereof was scored and evaluated both macroscopically and histologically in the same manner as in Experiment 1 according to the Macpherson's method for Classification and Evaluation. In the control group, the same procedures were repeated except for that a physiological saline was administered instead of a suspension of Ecabet sodium-containing granules in a physiological saline.

[8] = compared with the disodium salt; cited from earlier work
[9] = Ecabet sodium-containing granules 0.5 g in saline intra-rectally 1 h before 25% acetic acid, intestine excised 2 h after acetic acid, mean ± s.e. of sum of scores (0-3) of 4 items
[10] = Fischer rats 3 weeks after TNBS 50 mg/kg, granules 0.5 g intra-rectally 30 min before 25% acetic acid, 2 h after acetic acid, P < 0.05 vs saline

CC(C)c1cc2c(cc1S(=O)(=O)O)[C@@]1(C)CCC[C@@](C)(C(=O)O)[C@@H]1CC2 [Ecabet sodium, (+)-(1R,4aS,10aR)-1,2,3,4,4a,9,10,10a-octahydro-1,4a-dimethyl-7-(1-methylethyl)-6-sulfo-1-phenanthrenecarboxylic acid 6-sodium salt pentahydrate]
Inflammation, Matts Grade, after the administration ([1]; Experiment 5, person, granules 1.5 g in saline 20 ml rectally twice a day, Matts Grade 3 before): Grade 2
Area of inflammation after the administration ([1]; Experiment 5, person, granules 1.5 g rectally twice a day): decreased; also recorded: reduced
inflammation of the intestine tissue at the lesion (endoscope) ([1]; Experiment 5, 11 days after the start of the administration): remarkably improved
ulcer at the rectum after the administration (endoscope) ([1]; Experiment 6, person, granules 1.5 g in saline 20 ml rectally twice a day, 18 days, intractable ulcer before): turned into a red scar; also recorded: Improvement into a red
inflammation condition after the administration ([1]; Experiment 7, person, granules 1.5 g in saline 20 ml rectally twice a day, mild to moderate inflammation before): only a slight erythema was remained; also recorded: Improvement into a slight
inflammation of the lesion (endoscope) ([1]; Experiment 7, 12 days after the start of the administration): almost disappeared
Degree of Histological Injury [2, 9]: 2.3 ± 0.4
Degree of Macroscopic Injury [2, 9]: 1.3 ± 0.2
intestinal mucosal injury induced by acetic acid (observation) ([2]; versus physiological saline-treated rats (injury broadly observed)): hardly observed
injury of the intestinal mucosa (endoscope) [3]: disappeared
ileum pouchitis and ulcer outcome [4]: cured without any cicatricial stenosis
acute hemorrhagic rectal ulcer outcome ([5]; Experiment 8, person, granules 1.5 g in water through the anus twice a day for about 1.5 month): cured without any cicatricial stenosis
acute hemorrhagic rectal ulcer outcome ([5]; Experiment 9, person, granules 1.5 g in water through the anus twice a day for about 2.5 months): cured without any cicatricial stenosis
acute hemorrhagic rectal ulcer outcome ([5]; Experiment 10, person, granules 1.5 g in water through the anus twice a day for about 1 month): cured without any cicatricial stenosis
ulcerative lesion in the endoscopic finding ([6]; 2 weeks after the start of the administration): remarkably improved
recrudescence ([6]; 7 months after the start of the administration): has not been observed
pain and melena ([6]; granules 1.5 g orally twice a day plus 1.5 g through artificial anus twice a day, in a several days): disappeared
Degree of Histological Injury [7, 10]: 4.6 ± 0.4
Degree of Macroscopic Injury [7, 10]: 3.9 ± 0.3
intestinal mucosal injury (observation) ([7]; TNBS-enteritis Fischer rats, versus physiological saline-treated rats): effectively inhibited

CC(C)c1cc2c(cc1S(=O)(=O)[O-])[C@@]1(C)CCC[C@@](C)(C(=O)O)[C@@H]1CC2.[Na+] [Sulfodehydroabietic acid monosodium salt]
hygroscopicity [8]: less hygroscopic
stability [8]: more stable
